{"source": "patent US10770169B2", "about": "“Method of providing a treatment to a subject based on a dynamic pathway map” (THE REGENTS OF THE UNIVERSITY OF CALIFORNIA, priority 2010, dated 2020)", "system": "panel of 55 breast cancer cell lines", "test": "Cell growth inhibition assay (Cell Titer Glo, 72 h, 9 doses; GI50, TGI, LC50)", "type": "cell-based, human", "conditions": "value is the negative log10 of mol/L"}
{"smiles": "O=C1NC(=O)/C(=C/c2ccc3nccc(-c4ccncc4)c3c2)S1", "note": "[GSK1059615B]", "values": [{"measurement": "GI50", "setting": "cell line 600MPE, censored GI50 values", "value": 6.31}, {"measurement": "GI50", "setting": "cell line 600MPE", "value": 6.31}, {"measurement": "GI50", "setting": "cell line AU565, censored GI50 values", "value": 6.32}, {"measurement": "GI50", "setting": "cell line AU565", "value": 6.32}, {"measurement": "GI50", "setting": "cell line BT474, censored GI50 values", "value": 6.80}, {"measurement": "GI50", "setting": "cell line BT549, censored GI50 values", "value": 5.73}, {"measurement": "GI50", "setting": "cell line CAMA1, censored GI50 values", "value": 5.77}, {"measurement": "GI50", "setting": "cell line HCC38, censored GI50 values", "value": 6.11}, {"measurement": "GI50", "setting": "cell line HCC70, censored GI50 values", "value": 6.75}, {"measurement": "GI50", "setting": "cell line HCC202, censored GI50 values", "value": 7.23}, {"measurement": "GI50", "setting": "cell line HCC1143, censored GI50 values", "value": 6.26}, {"measurement": "GI50", "setting": "cell line HCC1187, censored GI50 values", "value": 6.48}, {"measurement": "GI50", "setting": "cell line HCC1395, censored GI50 values", "value": 5.61}, {"measurement": "GI50", "setting": "cell line HCC1419, censored GI50 values", "value": 6.59}, {"measurement": "GI50", "setting": "cell line HCC1428, censored GI50 values", "value": 6.28}, {"measurement": "GI50", "setting": "cell line HCC1500, censored GI50 values", "value": 5.71}, {"measurement": "GI50", "setting": "cell line HCC1806, censored GI50 values", "value": 5.82}, {"measurement": "GI50", "setting": "cell line HCC1937, censored GI50 values", "value": 6.09}, {"measurement": "GI50", "setting": "cell line HCC1954, censored GI50 values", "value": 6.63}, {"measurement": "GI50", "setting": "cell line HCC2185, censored GI50 values", "value": 6.89}, {"measurement": "GI50", "setting": "cell line HCC3153, censored GI50 values", "value": 5.48}, {"measurement": "GI50", "setting": "cell line LY2, censored GI50 values", "value": 5.82}, {"measurement": "GI50", "setting": "cell line MCF7, censored GI50 values", "value": 5.53}, {"measurement": "GI50", "setting": "cell line MDAMB134VI, censored GI50 values", "value": 6.25}, {"measurement": "GI50", "setting": "cell line MDAMB175VII, censored GI50 values", "value": 6.18}, {"measurement": "GI50", "setting": "cell line MDAMB231, censored GI50 values", "value": 5.21}, {"measurement": "GI50", "setting": "cell line MDAMB361, censored GI50 values", "value": 5.84}, {"measurement": "GI50", "setting": "cell line MDAMB436, censored GI50 values", "value": 5.88}, {"measurement": "GI50", "setting": "cell line MDAMB453, censored GI50 values", "value": 6.52}, {"measurement": "GI50", "setting": "cell line MDAMB468, censored GI50 values", "value": 5.96}, {"measurement": "GI50", "setting": "cell line SKBR3, censored GI50 values", "value": 6.71}, {"measurement": "GI50", "setting": "cell line SUM52PE, censored GI50 values", "value": 6.89}, {"measurement": "GI50", "setting": "cell line SUM149PT, censored GI50 values", "value": 6.01}, {"measurement": "GI50", "setting": "cell line SUM159PT, censored GI50 values", "value": 6.73}, {"measurement": "GI50", "setting": "cell line SUM185PE, censored GI50 values", "value": 7.13}, {"measurement": "GI50", "setting": "cell line SUM1315MO2, censored GI50 values", "value": 6.49}, {"measurement": "GI50", "setting": "cell line T47D, censored GI50 values", "value": 6.58}, {"measurement": "GI50", "setting": "cell line UACC812, censored GI50 values", "value": 6.62}, {"measurement": "GI50", "setting": "cell line UACC893, censored GI50 values", "value": 6.89}, {"measurement": "GI50", "setting": "cell line ZR75B, censored GI50 values", "value": 6.51}, {"measurement": "GI50", "setting": "cell line ZR751, censored GI50 values", "value": 5.87}, {"measurement": "GI50", "setting": "cell line ZR7530, censored GI50 values", "value": 6.82}]}
